These results are taken from patent US9594084B2, “Phosphorylation of histones and uses thereof” (H. LEE MOFFITT CANCER CENTER AND RESEARCH INSTITUTE, priority 2012, dated 2017).

In one series the target is T1, ATM (Homo sapiens, UniProt Q13315).
T1 construct: endogenous in cells; host or cells: H1975
Description: IR-induced de-phosphorylation of pY37-H2B in H1975 cells (immunoblot). The settings on record: H1975 irradiated (15GY). Format: cell-based. The source says: Whole cell extracts were immunoblotted with indicated antibodies.
To determine whether pY37-H2B de-phosphorylation is regulated by ATM recruited to the sites of DSBs by the MRN complex, Applicants treated the cells with the ATM inhibitor Ku55393. […] EYA in turn interacted with H2AX executing a damage-signal-dependent dephosphorylation of Tyr142, that is constitutively phosphorylated in the absence of DNA damage (Cook, P. J. et al. (2009) Nature, 458(7238):591-596).

In series [1] the target is T2, Ack1 (Homo sapiens, UniProt Q07912, E346K).
T2 construct: HA; made in house
T2 sequence (Q07912 whole entry E346K): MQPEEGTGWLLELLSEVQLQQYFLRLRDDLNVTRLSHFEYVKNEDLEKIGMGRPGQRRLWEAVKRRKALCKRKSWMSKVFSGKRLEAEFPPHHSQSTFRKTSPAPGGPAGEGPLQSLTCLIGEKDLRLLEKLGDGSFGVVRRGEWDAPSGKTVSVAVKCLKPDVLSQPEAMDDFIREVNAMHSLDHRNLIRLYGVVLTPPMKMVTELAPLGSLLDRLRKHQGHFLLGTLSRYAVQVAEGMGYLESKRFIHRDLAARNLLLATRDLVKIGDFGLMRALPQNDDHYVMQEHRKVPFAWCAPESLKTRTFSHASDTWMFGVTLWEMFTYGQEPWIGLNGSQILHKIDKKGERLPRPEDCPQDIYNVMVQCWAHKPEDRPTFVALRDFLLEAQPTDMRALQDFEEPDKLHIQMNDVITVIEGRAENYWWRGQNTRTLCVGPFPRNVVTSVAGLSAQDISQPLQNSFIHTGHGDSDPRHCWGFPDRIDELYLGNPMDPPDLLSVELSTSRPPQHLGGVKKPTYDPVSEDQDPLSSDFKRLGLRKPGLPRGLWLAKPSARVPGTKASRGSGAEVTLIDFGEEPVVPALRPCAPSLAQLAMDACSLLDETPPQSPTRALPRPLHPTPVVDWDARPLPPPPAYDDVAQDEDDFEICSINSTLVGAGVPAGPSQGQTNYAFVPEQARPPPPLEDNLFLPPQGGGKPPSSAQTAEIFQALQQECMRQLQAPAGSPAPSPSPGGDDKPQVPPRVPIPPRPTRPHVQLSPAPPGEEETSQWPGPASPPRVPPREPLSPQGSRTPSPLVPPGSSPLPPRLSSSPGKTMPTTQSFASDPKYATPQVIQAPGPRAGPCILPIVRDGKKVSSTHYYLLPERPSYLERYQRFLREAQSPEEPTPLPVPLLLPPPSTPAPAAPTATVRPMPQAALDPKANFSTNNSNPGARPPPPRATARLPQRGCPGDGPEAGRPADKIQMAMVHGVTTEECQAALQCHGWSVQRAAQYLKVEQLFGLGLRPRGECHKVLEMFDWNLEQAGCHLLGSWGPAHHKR
In kind it is biochemical. Conditions: 5 uM for 1 hour at 30° C.

Series [2] concerns pTyr-AR recruitment to PSA, NKX3,1 and TMPRSS2 promoters. Description: ChIP-qPCR for pTyr267-AR binding to PSA, NKX3.1 and TMPRSS2 AREs in LAPC4 cells. In kind it is cell-based. Conditions: EGF (10 ng/ml, 1 hr), AIM-100 0.8 μM, 16 hr. The method, then: FIG. 8A-8C are bar graphs showing Ack1 inhibition by AIM-100 suppressed recruitment of pTyr-AR to PSA (FIG. 8A), NKX3.1 (FIG. 8B) and TMPRSS2 (FIG. 8C) promoters. LAPC4 cells were treated with DHT (5 nM, 16 hr) or EGF (10 ng/ml, 1 hr), and AIM-100 (0.8 μM, 16 hr) and ChIP analysis for pTyr267-AR binding to the PSA, NKX3.1 and TMPRSS2 AREs was performed followed by qPCR. *p=0.001; **p=0.006; ***p=0.014.
LAPC4 cells were treated with DHT (5 nM, 16 hr), EGF (10 ng/ml, 1 hr), or EGF and AIM-100 (0.8 μM, 16 hr) and ChIP analysis for pTyr267-AR binding to the PSA, NKX3.1 and TMPRSS2 AREs was performed followed by qPCR. Ack1 inhibition by AIM-100 suppressed recruitment of pTyr-AR to PSA, NKX3,1 and TMPRSS2 promoters (FIGS. 8A-8C).
(In general: In qPCR the cycle at which signal appears reflects the starting amount.)

Series [3] concerns the target T3, Ack1 (Homo sapiens, UniProt Q07912). In kind it is biochemical. Conditions: ELISA, read at 450 nm. The method, then:
WEE1 and Ack1 are two non-receptor tyrosine kinases or NRTKs that have known nuclear functions. To determine whether WEE1 and Ack1 can directly target H4 for Tyr88-phosphorylation, this study performed in vitro kinase assay. In brief, the Streptavidin coated 96-well plates (R&D systems) were incubated with biotinylated H4-derived peptide […] (SEQ ID NO: 64) for 1 hour. The plates were washed and the purified WEE1 or Ack1 were added in kinase buffer (20 mM HEPES, 150 mM NaCl, 0.5% Triton X-100, 10% Glycerol, phosphatase and protease inhibitors) containing ATP and MgCl2. After 2 hours of incubation, plates were washed with phosphate buffered saline containing 0.1% Tween 20 (PBST) and blocked in 3% BSA. The pY88-H4 antibodies (at 1:500 dilution) were added and incubated for 1 hour. Unbound antibodies were washed and HRP-conjugated anti-mouse secondary Antibodies (1:2000) were added. Magnitude of phosphorylation was detected using developer solution (OPD tablets, Sigma) and the plates were read at 450 nm. As a negative control, no kinase and no peptide reactions were used. The biotinylated phosphopeptide […]p[…] (SEQ ID NO: 65) was used as a positive control.
A general note: An ELISA detects its analyte on a solid surface through an enzyme-linked reagent.

Another series concerns Xenopus laevis embryos. The text has this:
Table 4 provides the phenotype distribution for surviving embryos (raw data are identical to those in Table 3).

In series [4] the test system is LNCaP-caAck expressing cells. Description: LNCaP-caAck prostate xenograft tumor growth in castrated nude male mice. The settings on record: 4 mg/kg of body weight per injection, five times. In kind it is in vivo. The method, then: FIG. 9 is a line graph showing prostate xenograft tumor volume (mm^3) in castrated nude male mice treated with AIM-100 Ack1 inhibitor or DMSO control. Castrated nude male mice were injected with LNCaP-caAck expressing cells. Mice were injected with AIM-100 (4 mg/kg of body weight per injection) on five times (n=8) and tumor volumes were measured.
Castrated nude male mice were injected with LNCaP-caAck expressing cells. Mice were injected with AIM-100 (4 mg/kg of body weight per injection) on five times (n=8) and tumor volumes were measured.

The next series deals with H3K9 and K27 methylation. Briefly: Immunoblot of H3K9/H3K27 methylation in LAPC4 cells. Format: cell-based. As for the experimental part:
FIG. 25 is an immunoblot of lysates from LAPC4 cells that were untreated (column 1), treated with EGF (column 2), or treated with EGF and AIM-100 (column 3) that were immunoblotted with H3K9 dimethyl (top panel), H3K27 (middle panel), or H3 (bottom panel) antibodies.
The prostate cancer derived cells, LAPC4 were treated with AIM-100 (7 uM, 16 hours). The equal amount of cell lysates were subjected to immunoblotting with H3K9me3 and histone H3 antibodies. […] The histone H3 antibodies were used as a control to indicate equal amount of protein.
LAPC4 cells were treated with EGF or EGF and AIM-100 and the lysates were immunoblotted with H3K9 dimethyl and H3K27 dimethyl antibodies. Thus, marking of chromatin with H3-Tyr99-phosphorylation within AR-target gene promoters may suppress repressive dimethylation leading to transcriptional activation in androgen-deprived environment of prostate tumors.
LAPC4 cells were treated with EGF or EGF and AIM-100 and the lysates were immunoblotted with H3K9 and H3K27 antibodies. Thus, marking of chromatin with H3-Tyr99-phosphorylation within AR-target gene promoters may suppress repressive dimethylation leading to transcriptional activation in androgen-deprived environment of prostate tumors.
In general terms: A western blot detects proteins with antibodies after separation by electrophoresis.

Series [5] concerns the target T3, Ack1. In kind it is biochemical.
Description: Purified histone H3 and Ack1 were incubated at 37° C. for 1 hour with or without AIM-100 followed by immunoblotting with indicated antibodies.
Where [6] appears, read: Table 3, of total injected embryos.

Each structure is given as a SMILES string. “Also recorded” adds a separate entry of the source.

T3 sequence (Q07912 whole entry): as the sequence (Q07912 whole entry E346K) above, with K346E counted along it
T1 sequence (Q13315 whole entry): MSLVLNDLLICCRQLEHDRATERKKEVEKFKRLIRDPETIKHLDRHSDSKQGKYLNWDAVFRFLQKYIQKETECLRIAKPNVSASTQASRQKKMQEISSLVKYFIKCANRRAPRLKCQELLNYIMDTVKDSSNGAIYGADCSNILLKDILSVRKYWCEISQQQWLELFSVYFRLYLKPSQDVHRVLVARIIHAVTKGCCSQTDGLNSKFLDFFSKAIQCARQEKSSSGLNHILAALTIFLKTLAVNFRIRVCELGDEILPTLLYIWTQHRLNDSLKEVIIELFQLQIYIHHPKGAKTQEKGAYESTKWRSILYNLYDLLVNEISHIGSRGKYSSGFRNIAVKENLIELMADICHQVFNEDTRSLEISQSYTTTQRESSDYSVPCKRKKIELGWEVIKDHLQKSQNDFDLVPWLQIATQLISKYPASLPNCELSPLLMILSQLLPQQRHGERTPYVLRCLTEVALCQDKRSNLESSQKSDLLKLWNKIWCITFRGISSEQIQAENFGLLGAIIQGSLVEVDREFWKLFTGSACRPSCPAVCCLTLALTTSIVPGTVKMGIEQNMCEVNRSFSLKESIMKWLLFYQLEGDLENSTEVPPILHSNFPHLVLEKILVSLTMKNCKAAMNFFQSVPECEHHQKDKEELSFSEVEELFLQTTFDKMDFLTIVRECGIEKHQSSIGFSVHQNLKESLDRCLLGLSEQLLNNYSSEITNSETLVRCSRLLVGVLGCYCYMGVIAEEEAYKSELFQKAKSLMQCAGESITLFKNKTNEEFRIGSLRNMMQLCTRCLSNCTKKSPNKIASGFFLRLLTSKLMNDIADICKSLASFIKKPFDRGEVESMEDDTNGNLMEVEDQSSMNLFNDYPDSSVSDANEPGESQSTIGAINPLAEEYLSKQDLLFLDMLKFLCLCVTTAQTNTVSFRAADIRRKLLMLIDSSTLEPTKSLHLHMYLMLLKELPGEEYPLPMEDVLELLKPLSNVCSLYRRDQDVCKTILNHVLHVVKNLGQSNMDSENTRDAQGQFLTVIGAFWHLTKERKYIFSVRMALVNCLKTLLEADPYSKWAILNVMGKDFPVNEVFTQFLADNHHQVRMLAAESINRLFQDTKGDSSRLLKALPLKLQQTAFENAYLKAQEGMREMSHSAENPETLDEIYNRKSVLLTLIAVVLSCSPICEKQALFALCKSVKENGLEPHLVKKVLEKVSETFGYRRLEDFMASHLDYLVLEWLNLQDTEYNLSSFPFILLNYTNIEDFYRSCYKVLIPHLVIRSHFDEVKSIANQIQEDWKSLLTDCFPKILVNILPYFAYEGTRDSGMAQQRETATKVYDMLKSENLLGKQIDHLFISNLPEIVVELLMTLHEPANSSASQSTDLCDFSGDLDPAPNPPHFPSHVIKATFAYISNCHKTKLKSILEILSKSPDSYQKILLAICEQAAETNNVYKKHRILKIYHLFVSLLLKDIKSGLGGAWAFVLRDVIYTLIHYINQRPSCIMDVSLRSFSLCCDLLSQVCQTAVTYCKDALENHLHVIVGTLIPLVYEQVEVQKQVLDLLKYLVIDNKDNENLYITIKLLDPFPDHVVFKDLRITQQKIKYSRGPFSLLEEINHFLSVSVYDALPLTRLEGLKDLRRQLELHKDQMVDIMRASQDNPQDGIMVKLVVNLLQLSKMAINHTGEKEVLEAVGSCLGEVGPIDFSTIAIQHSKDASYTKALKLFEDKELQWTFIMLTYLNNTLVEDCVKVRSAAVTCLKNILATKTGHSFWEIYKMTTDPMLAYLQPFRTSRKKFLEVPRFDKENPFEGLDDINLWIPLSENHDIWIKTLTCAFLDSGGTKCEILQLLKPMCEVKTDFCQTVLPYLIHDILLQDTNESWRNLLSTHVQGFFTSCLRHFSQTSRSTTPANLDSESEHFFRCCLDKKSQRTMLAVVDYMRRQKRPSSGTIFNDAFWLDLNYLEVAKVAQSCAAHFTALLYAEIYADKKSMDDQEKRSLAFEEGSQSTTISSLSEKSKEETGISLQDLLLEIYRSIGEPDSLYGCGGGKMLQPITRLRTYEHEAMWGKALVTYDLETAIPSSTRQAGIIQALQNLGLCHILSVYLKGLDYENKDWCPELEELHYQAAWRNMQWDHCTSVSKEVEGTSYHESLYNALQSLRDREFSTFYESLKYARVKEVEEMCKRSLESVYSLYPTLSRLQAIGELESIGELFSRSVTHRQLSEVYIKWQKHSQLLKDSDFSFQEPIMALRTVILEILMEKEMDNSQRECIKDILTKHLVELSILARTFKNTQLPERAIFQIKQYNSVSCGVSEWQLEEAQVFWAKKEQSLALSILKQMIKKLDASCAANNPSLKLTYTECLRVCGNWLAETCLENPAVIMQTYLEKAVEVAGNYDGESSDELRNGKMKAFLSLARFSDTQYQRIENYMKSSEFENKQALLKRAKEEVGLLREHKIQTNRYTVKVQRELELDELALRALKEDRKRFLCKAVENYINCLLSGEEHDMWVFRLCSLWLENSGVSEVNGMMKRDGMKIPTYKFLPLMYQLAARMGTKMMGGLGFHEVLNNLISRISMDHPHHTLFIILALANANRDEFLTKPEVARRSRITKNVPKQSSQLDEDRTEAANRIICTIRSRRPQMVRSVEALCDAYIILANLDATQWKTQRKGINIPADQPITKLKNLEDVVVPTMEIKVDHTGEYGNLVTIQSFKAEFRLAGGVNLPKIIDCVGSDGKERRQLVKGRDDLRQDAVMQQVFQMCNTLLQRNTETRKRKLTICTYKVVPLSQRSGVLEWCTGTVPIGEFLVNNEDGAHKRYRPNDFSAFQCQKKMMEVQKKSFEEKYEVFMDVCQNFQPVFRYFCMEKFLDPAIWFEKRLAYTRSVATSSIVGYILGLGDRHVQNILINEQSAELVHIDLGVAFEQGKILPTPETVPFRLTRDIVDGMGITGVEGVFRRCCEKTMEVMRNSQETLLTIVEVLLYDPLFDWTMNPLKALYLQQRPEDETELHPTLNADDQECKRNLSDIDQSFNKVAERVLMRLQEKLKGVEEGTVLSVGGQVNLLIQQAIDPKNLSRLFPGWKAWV

In the case of `O=c1cc(-c2cccc3c2Sc2ccccc2S3)oc(N2CCOCC2)c1` [Ku55393], the “IR-induced de-phosphorylation of pY37-H2B” value at ATM is given as “prevented”.

On to `c1ccc(-c2oc3ncnc(NC[C@@H]4CCCO4)c3c2-c2ccccc2)cc1` [AIM-100], for which the “H4 pTyr51-phosphorylation by purified E346K-Ack1” value at Ack1 [1] is “abrogated”. Besides, in series [2], the “recruitment of pTyr-AR to PSA, NKX3,1 and TMPRSS2 promoters” value is reported as “suppressed”. Moreover, at Ack1 [3], the “H4 Tyr88-phosphorylation by Ack1” value is recorded as “significantly decreased”. Besides, in the series on Xenopus laevis embryos (setting [6]), the “abn/delay, gastrulation is abnormal or delayed (% of total)” value is given as “(6.7%)”; the “abn/delay, gastrulation is abnormal or delayed (number of embryos)” value is recorded as 15; the “dead (% of total)” value was “(43%)”; the “dead (number of embryos)” value is listed as 97. In the series on Xenopus laevis embryos (setting [6]), the “epib blk, epiboly block phenotype (% of total)” value is “(29%)”; the “epib blk, epiboly block phenotype (number of embryos)” value is 65; the “epib red, partial phenotype (% of total)” value is on record as “(8%)”; the “epib red, partial phenotype (number of embryos)” value is reported as 18. Also, the “norm. (% of total)” value in the series on Xenopus laevis embryos (setting [6]) is listed as “(11%)”. The “norm. (number of embryos)” value with Xenopus laevis embryos (Table 3, of total injected embryos, antibodies 200 ng/em, AIM-100 200 pM/em) came out at 24. In the series with Xenopus laevis embryos (Table 4, surviving embryos), the “abn/delay (% of survivors)” value is 12%, the “abn/delay (number of embryos)” value is 15, the “epib blk (number of embryos)” value is on record as 65 and the “epib red (number of embryos)” value is reported as 18. For the same compound, in the series on Xenopus laevis embryos (Table 4, surviving embryos), the “normal (% of survivors)” value came to 19% and the “normal (number of embryos)” value is 24. Also, in the series with Xenopus laevis embryos (by the onset of gastrulation (~20 hours after microinjection at the 2-cell stage, 16° C.)), the mortality rate was 43-45%. Also, the “timing or pattern of early cleavages” value with Xenopus laevis embryos (injected embryos) was “did not alter”. In the series with Xenopus laevis embryos (surviving embryos), the “epib blk, epiboly block/involution failure (% of survivors)” value is 51% and the “epib red, partial reduced epiboly phenotype (% of survivors)” value is on record as 14%. Also, the “prostate xenograft tumor growth” value in series [4] is “mitigated the growth; also recorded: partially suppresses”. In the series on H3K9 and K27 methylation, the “H3K9 and K27 dimethylation and trimethylation” value was “increased”. The “H3 K9 trimethylation” value in the series on H3K9 and K27 methylation (LAPC4 cells, 7 uM, 16 hours) is “increased; also recorded: significant increase”. Besides, in the series on H3K9 and K27 methylation (LAPC4 cells, EGF and AIM-100), the “H3K9 and K27 dimethylation” value is “increased”. Also, on Ack1 [5], the “Ack1 phosphorylation of H3 at Tyr99” value is “significantly compromised”.
